Assay results taken from patent US6638974B1, “Ascorbyl esters for the treatment of cancer” (University of South Florida, priority 1999, dated 2003).

What was measured:
IGF1-R [1] = assay: IGF1-R expression by Western immunoblotting, PANC-1; assay type: cell-based, human; conditions: 150 μM, 24 hours, vs untreated control
Procedure: PANC-1 cells were cultured for 24 hours in MEM+10% FBS and treated with 150 μM Asc-S for 24 hours, Asc-S treated and untreated (control). PANC-1 cells were analyzed by Western immunoblotting as follows: Cell lysates of treated and non-treated PANC-1 cells were obtained. The lysates were sonicated, centrifuged and protein concentration was determined with Pierce BCA protein kit (Pierce Laboratories). A 20 μg of protein was loaded and resolved at 4% to 15% polyacrylamide gradient gel by sodium dodecyl sulfate-polyacrylamide gel electrophoresis (SDS-PAGE) and electroblotted onto a nitrocellulose membrane […]. The membrane was immunoblotted with mouse anti-human IGF1-R antibodies to cross-react the 85 kDa β-subunit of the IGF1-R (Pharmingen, San Diego, Calif.) followed by anti-mouse horseradish peroxidase conjugated secondary antibody (ECL, Amersham Corporation, Arlington Heights, Ill.). Antigen bound to nitrocellulose membrane was detected with the ECL system (Amersham Corporation, Arlington Heights, Ill.). P6 cells (3T3 fibroblast cells, transfected with a CVN plasmid constituitively expressing human IGF1-R) were used as the positive control.
In additional experiments PANC-1 cells were cultured in MEM+10% FBS and treated with different concentrations of Asc-S (e.g. 50, 75, 100, 125, 150 and 200 μM) for 24 hours. […]

PANC-1 cells = assay: Soft agar colony growth, PANC-1; assay type: cell-based, human; conditions: PANC-1, 150 μM Asc-S
Procedure: Soft agar experiments: To test the hypothesis that treatment of PANC-1 cells in culture with Asc-S reverses their transformed phenotype, the growth of PANC-1 was assessed in soft agar. PANC-1 cells were seeded at a density of 3×10^3/35 mm plate in 10% serum on a top layer of 0.3% agar and a bottom layer of 1% agar with and without the addition of 150 μM of Asc-S for 24 hours. The Asc-S was added to the top layer every day. Colonies greater than 125 microns in diameter (or ten cells) were counted at weekly intervals for 14-21 days. The clonogenicity was determined in three independent experiments comprising six replicates.

PDGF-R = PDGF-R expression by Western blot, PANC-1; assay type: cell-based, human; conditions: 150 μM, 24 hours
IGF1-R [2] = assay: IGF1-R expression by Western immunoblotting, U-373; assay type: cell-based, human; conditions: 75 μM, 24 hours, MEM+10% FBS
Procedure: The T98G and U-373 cells were cultured for 24 hours in MEM+10% FBS and when confluent were treated with 100 μM and 75 μM, Asc-S for 24 hours, respectively. […] In addition, it was also observed that the inhibition of IGF1-R expression was dose and time dependent. The T98G cells culture in MEM+10% FBS and treated with different concentrations of Asc-S, e.g. 50, 75, 100, 125, 150 and 175 μM for 24 hours, inhibited IGF1-R in a dose dependent fashion (FIG. 8C). The T98G cells treated with 100 μM Asc-S for different time points, e.g. 1, 3, 6, 12 and 24 hours inhibited IGF1-R in a time dependent manner (FIG. 8D). IGF1-R expression was evaluated by Western immunoblotting technique with rabbit-antihuman IGF1-R antibodies (Upstate Biotechnology, Lake Placid, N.Y.) with HRP conjugated anti-rabbit secondary antibody.
The inhibition of IGF1-R expression was also dose and time dependent. […] The following are depicted in FIG. 8B: Lane 1: P6 positive control for IGF1-R […]; Lane 2: untreated T98G cells; Lane 3: Asc-S (125 μM) treated T98G cells. […]

[3] = tested on: mouse glioma cells (G-26); assay: Intracerebral G-26 glioma in C57BL/6 mice, survival; assay type: in vivo; conditions: C57BL/6 mice with intracerebral G-26 gliomas, oral 250 mg/Kg daily; controls 27±2 days
Procedure: In vivo administration of Asc-S (250 mg/Kg) on intracerebral gliomas in C57BL/6 mice: The C57BL/6 mice were implanted with mouse glioma cells (G-26) by stereotaxic intracerebral implantation. […] (FIGS. 11A and B).
The body weight profiles of those mice during the experiments are shown in (FIG. 11B). The median survival observed in this study is statistically significant (P<0.05).
In vivo administration of Asc-S (250 mg/Kg) on intracerebral gliomas in C57BL/6 mice. The C57BL/6 mice were implanted with mouse glioma cells (G-26) by stereotaxic intracerebral implantation.
The body weight profiles of those mice during the experiments are shown in (FIG. 17B). The median survival observed in this study is statistically significant (P<0.05).

[4] = mice; cited from earlier work

## CCCCCCCCCCCCCCCCCC(=O)OC[C@H](O)[C@H]1OC(=O)C(O)=C1O [Asc-S, Ascorbyl stearate]
IGF1-R [1]
  IGF1-R expression, PANC-1 cells (Western blotting): significantly lower number of receptors
PANC-1 cells; 1st week
  soft agar colonies, 1st week: 0 colonies
PANC-1 cells; 2nd week
  soft agar colonies, 2nd week: 15 colonies
PANC-1 cells; third week
  soft agar colonies, 3rd week: 50 colonies
PDGF-R
  PDGF-R expression, PANC-1: did not affect
IGF1-R [2]
  IGF1-R expression, U-373 cells: significantly down regulated
[3]
  median survival: 43 ± 2 days
[4]
  LD50: 25000 mg/kg
